Experiment [1] concerns the target Alpha-ketoglutarate-dependent dioxygenase FTO (Homo sapiens, UniProt Q9C0B1). In words: Inhibition of N-terminal truncated FTO demethylation (unknown origin) using 5'-ATTGCCATTCTCGATAGG(dm6A)TCCGGTCAAACCTAGACGAA-3' ssDNA template incubated for 2 hrs by PAGE-based assay.
Experiment [2] concerns MOLM-13. In words: Anti-proliferative activity against human MOLM-13 cells assessed as inhibition of cell viability incubated for 72 hrs by CCK8 assay. In kind it is functional, cell-based. To be noted: MOLM-13, 72 h. Background: Tetrazolium dyes change colour on reduction, which living cells bring about.
The subject of experiment [3] is NB-4. In words: Anti-proliferative activity against human NB4 cells assessed as inhibition of cell viability incubated for 72 hrs by CCK8 assay. In kind it is functional, cell-based. As to conditions: NB-4, 72 h.

Chain of Alpha-ketoglutarate-dependent dioxygenase FTO (Q9C0B1 whole entry, the tested form may be a part): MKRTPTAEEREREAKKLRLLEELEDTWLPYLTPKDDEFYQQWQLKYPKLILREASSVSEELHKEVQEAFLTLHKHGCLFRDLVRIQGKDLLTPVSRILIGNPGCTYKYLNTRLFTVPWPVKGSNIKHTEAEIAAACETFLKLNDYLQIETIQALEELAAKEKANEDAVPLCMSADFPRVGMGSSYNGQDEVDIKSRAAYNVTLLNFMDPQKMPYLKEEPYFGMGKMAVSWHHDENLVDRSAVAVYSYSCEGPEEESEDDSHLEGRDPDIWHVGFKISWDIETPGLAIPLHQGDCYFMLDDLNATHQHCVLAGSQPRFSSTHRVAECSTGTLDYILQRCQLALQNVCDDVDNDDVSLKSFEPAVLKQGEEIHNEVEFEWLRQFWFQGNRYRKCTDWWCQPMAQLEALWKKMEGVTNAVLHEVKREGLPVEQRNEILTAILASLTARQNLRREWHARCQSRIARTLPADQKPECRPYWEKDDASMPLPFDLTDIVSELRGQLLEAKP

For orientation: IC50 means the concentration at which inhibition is half-maximal. With `Cc1n[nH]c(C)c1-c1cc(C2CC2)c(Nc2ccsc2C(=O)NC#N)c(C2CC2)c1`, the IC50 in experiment [1] came to 270 nM.
With `Cc1n[nH]c(C)c1-c1cc(C2CC2)c(Nc2ccsc2C(=O)NO)c(C2CC2)c1`, the IC50 in experiment [2] and in experiment [3] was 300 nM throughout.
Compound `Cc1n[nH]c(C)c1-c1cc(Cl)c(Nc2ccsc2C(=O)O)c(Cl)c1` displayed an IC50 in experiment [1] of 680 nM.
